Assay results reported in ChEMBL document CHEMBL1136063, “Oxal hydroxamic acid derivatives with inhibitory activity against matrix metalloproteinases” (Bioorg Med Chem Lett, 2002).

What was measured:
Neutrophil collagenase [1] = target: T1, Neutrophil collagenase (Homo sapiens, UniProt P22894); experiment: Percent remaining enzyme activity (RA) in neutrophil collagenase (matrix metalloprotease-8); parameters: concentration or dose not given beside the values
Target sequence in this assay (P22894 101-467 limits assumed): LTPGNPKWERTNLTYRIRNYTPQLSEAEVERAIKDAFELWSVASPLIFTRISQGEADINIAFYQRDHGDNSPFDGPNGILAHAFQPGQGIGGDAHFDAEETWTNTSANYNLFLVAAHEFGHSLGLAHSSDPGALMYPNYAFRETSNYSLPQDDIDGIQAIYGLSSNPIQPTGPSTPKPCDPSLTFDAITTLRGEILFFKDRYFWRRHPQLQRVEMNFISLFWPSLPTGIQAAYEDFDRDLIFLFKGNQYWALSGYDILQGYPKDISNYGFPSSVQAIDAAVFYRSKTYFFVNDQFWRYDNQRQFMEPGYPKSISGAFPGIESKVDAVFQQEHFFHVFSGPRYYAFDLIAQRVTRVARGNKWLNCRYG

[2] = target: T2, Matrix metalloproteinase-14 (Homo sapiens, UniProt P50281); experiment: Percent remaining enzyme activity (RA) in catalytic domains of the membrane type MT1-MMP (matrix metalloprotease-14); parameters: concentration or dose not given beside the values
[3] = target: T2, Matrix metalloproteinase-14; experiment: (§1) Inhibition of membrane type MT1-MMP (Matrix metalloprotease-14)catalytic domain
Neutrophil collagenase [4] = target: T1, Neutrophil collagenase; experiment: Tested for its inhibitory activity against neutrophil collagenase (Matrix metalloprotease-8)
Target sequence in this assay (P22894 whole entry, the tested form may be a part): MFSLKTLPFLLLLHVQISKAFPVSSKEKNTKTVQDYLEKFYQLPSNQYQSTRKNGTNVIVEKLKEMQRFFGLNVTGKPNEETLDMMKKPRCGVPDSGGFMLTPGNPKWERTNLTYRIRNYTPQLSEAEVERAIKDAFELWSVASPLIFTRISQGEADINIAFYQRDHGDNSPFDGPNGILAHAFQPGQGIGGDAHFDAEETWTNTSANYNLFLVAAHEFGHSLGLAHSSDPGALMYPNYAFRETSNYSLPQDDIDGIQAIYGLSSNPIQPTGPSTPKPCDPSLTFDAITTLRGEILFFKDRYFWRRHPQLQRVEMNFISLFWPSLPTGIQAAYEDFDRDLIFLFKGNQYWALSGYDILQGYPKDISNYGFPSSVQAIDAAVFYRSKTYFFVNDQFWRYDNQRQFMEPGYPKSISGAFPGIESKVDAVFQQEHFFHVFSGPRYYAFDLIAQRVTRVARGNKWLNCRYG

[5] = target: T3, Matrix metalloproteinase-9 (Homo sapiens, UniProt P14780); experiment: Inhibitory activity against human gelatinase B (matrix metalloprotease-9)
T3 sequence (P14780 whole entry): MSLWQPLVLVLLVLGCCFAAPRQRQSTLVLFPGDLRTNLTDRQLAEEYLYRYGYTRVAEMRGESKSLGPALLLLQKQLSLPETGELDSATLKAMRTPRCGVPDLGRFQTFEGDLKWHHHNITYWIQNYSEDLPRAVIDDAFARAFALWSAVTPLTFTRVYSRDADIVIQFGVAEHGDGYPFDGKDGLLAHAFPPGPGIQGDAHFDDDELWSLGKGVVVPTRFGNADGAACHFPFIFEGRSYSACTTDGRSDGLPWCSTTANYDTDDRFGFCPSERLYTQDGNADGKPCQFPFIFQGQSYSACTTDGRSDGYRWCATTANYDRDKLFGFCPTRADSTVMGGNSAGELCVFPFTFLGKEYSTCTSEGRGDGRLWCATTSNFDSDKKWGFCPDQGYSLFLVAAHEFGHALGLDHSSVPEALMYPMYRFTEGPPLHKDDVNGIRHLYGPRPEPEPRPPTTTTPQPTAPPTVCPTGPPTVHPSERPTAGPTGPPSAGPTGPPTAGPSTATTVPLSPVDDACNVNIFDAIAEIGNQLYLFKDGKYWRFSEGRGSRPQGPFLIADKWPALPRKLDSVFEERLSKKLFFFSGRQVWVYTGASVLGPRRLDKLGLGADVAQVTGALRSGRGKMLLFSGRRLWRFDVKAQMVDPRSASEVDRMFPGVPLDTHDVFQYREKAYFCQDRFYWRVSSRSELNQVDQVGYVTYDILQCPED

[6] = target: T3, Matrix metalloproteinase-9; experiment: Percent remaining enzyme activity (RA) in human gelatinase B (matrix metalloprotease-9); parameters: concentration or dose not given beside the values
[7] = target: T2, Matrix metalloproteinase-14; experiment: as §1; settings: concentration not given here

SMILES	residual activity (Neutrophil collagenase [1]) [%]	residual activity [2] [%]	Ki [3] [µM]	Ki (Neutrophil collagenase [4]) [µM]	Ki [5] [µM]	residual activity [6] [%]	inhibition [7] [%]
O=C(NO)C(=O)NCCc1c[nH]c2ccc(Cl)cc12	15	35	35	14	0.35	2	–
CCCCC(CC)COCCCNC(=O)C(=O)NO (centres undefined)	12	14	9	7	0.25	3	–
CN(C)C(=O)[C@H](Cc1ccc(COc2ccccc2)cc1)NC(=O)C(=O)NO	43	37	–	22	3	7	–
C[C@H](NC(=O)C(=O)NO)c1ccc2ccccc2c1	89	80	–	–	–	67	–
O=C(NO)C(=O)NCCc1c[nH]c2ccccc12	18	48	–	–	0.8	3	–
CNC(=O)[C@H](Cc1ccc(OCc2ccccc2)cc1)NC(=O)C(=O)NO	4	53	–	1.5	2	1	–
O=C(NO)C(=O)NCCN(C(=O)C(=O)NO)c1cccc2ccccc12	14	20	–	–	0.1	0	–
CN(C)C(=O)[C@@H](Cc1ccc(OCc2ccccc2)cc1)NC(=O)[C@H](Cc1ccccc1)NC(=O)C(=O)NO	10	5	1.4	–	1	3	–
O=C(NO)C(=O)NCCC(NC(=O)C(=O)NO)C1CCCCC1 (centres undefined)	39	48	–	–	–	5	–
CN(C)C(=O)[C@H](COCc1ccccc1)NC(=O)C(=O)NO	56	41	–	–	–	40	–
CN(C)C(=O)[C@H](Cc1ccc2ccccc2c1)NC(=O)C(=O)NO	15	30	–	6	44	19	–
CC(OCc1ccccc1)[C@H](NC(=O)C(=O)NO)C(=O)N(C)C (some centres undefined)	67	66	–	75	4	18	–
C[C@@H](NC(=O)C(=O)NO)c1ccc2ccccc2c1	43	54	–	–	3.3	7	–
CC(C)C[C@H](NC(=O)C(=O)NO)C(=O)N(C)C	72	61	–	–	–	55	–
CC(C)C[C@H](NC(=O)C(=O)NO)C(=O)N[C@H](C)c1ccccc1	74	79	–	–	–	60	–
C[C@H](NC(=O)C(=O)NO)C(=O)N[C@@H](C)c1ccccc1	9	–	180	6	9	35	80
O=C(NO)C(=O)N[C@@H](Cc1ccc(COc2ccccc2)cc1)C(=O)NO	5	23	–	–	–	2	–
CN(C)C(=O)[C@H](Cc1c[nH]c2ccccc12)NC(=O)C(=O)NO	44	33	15	28	4.4	25	–
C[C@H](NC(=O)[C@H](Cc1ccc(NC(=O)Nc2ccccc2)cc1)NC(=O)C(=O)NO)c1ccccc1	6	74	–	1	0.8	5	–
CN(C)C(=O)[C@H](Cc1ccccc1)NC(=O)C(=O)NO	48	15	9.5	38	14	25	–
CC(C)C[C@H](NC(=O)C(=O)NO)C(=O)N[C@@H](C)c1ccccc1	3	54	20	1.7	5.5	9	–
CN(C)C(=O)[C@H](Cc1cccc2ccccc12)NC(=O)C(=O)NO	47	26	–	–	8.2	15	–
CCCC[C@H](NC(=O)C(=O)NO)C(=O)N[C@H](Cc1ccc(OCc2ccccc2)cc1)C(=O)N(C)C	34	29	33	–	7.5	13	–

Next, values leading:

residual activity (Neutrophil collagenase [1]) [%]	residual activity [2] [%]	Ki [3] [µM]	Ki (Neutrophil collagenase [4]) [µM]	Ki [5] [µM]	residual activity [6] [%]	inhibition [7] [%]	SMILES
1	36	14	0.43	0.9	1	–	C[C@H](NC(=O)[C@H](Cc1ccccc1)NC(=O)C(=O)NO)c1ccccc1
5	42	–	–	–	2	–	CC(NC(=O)[C@H](Cc1ccccc1)NC(=O)C(=O)NO)c1cccc2ccccc12 (some centres undefined)
0	54	–	0.25	0.6	0	–	C[C@H](NC(=O)[C@H](Cc1ccc(O)cc1)NC(=O)C(=O)NO)c1ccccc1
32	76	–	–	–	22	–	C[C@H](NC(=O)[C@H](Cc1ccc(NC(=O)OCc2ccccc2)cc1)NC(=O)C(=O)NO)c1ccccc1
1	19	11	–	3.3	6	–	C[C@H](NC(=O)[C@H](COCc1ccccc1)NC(=O)C(=O)NO)c1ccccc1
8	71	–	3	3.2	11	–	CC(OCc1ccccc1)[C@H](NC(=O)C(=O)NO)C(=O)N[C@@H](C)c1ccccc1 (some centres undefined)
2	36	–	0.4	0.1	1	–	C[C@H](NC(=O)[C@H](Cc1c[nH]c2ccccc12)NC(=O)C(=O)NO)c1ccccc1
1	53	–	–	0.6	3	–	C[C@H](NC(=O)[C@H](CC(=O)OCc1ccccc1)NC(=O)C(=O)NO)c1ccccc1
5	69	–	–	–	11	–	C[C@H](NC(=O)[C@H](Cc1ccc(OCc2ccccc2)cc1)NC(=O)C(=O)NO)c1ccccc1
0	–	29	0.3	0.15	1	–	C[C@H](NC(=O)[C@H](Cc1cccc2ccccc12)NC(=O)C(=O)NO)c1ccccc1
4	37	–	1	0.5	5	–	C[C@H](NC(=O)[C@H](Cc1ccc2ccccc2c1)NC(=O)C(=O)NO)c1ccccc1
